Data as given in patent US7473790B2 (Pfizer Inc., priority 2003, dated 2009).
pIC50: −log10 of the molar value.

Target: T1, HCV polymerase (Hepatitis C virus genotype 1b, UniProt P26663)
T1 construct: 2.5 pmoles (0.15 μg) HCV polymerase protein in a final volume of 75 μL
Test: HCV polymerase primer/template-directed transcription assay (32P-GTP incorporation, filter binding)
Format: biochemical
Details: recombinant HCV polymerase; 30 minutes at 30° C.; concentration giving 50% inhibition of polymerase-directed transcription; read-out: IC50
How it was run: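 IC50s come from triplicate cpm, refit with an enzyme-concentration (30 nM) correction when under 200 nM. Reactions ran 30 min at 30° C in Tris pH 7.2 with MgCl2, 1 μM GTP spiked with α-32P-GTP, biotin-dG12 primer and poly(rC)300 template, with 1% DMSO. Incorporated label was collected on DE filtermats and counted.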

T1 sequence (P26663 2420-3010): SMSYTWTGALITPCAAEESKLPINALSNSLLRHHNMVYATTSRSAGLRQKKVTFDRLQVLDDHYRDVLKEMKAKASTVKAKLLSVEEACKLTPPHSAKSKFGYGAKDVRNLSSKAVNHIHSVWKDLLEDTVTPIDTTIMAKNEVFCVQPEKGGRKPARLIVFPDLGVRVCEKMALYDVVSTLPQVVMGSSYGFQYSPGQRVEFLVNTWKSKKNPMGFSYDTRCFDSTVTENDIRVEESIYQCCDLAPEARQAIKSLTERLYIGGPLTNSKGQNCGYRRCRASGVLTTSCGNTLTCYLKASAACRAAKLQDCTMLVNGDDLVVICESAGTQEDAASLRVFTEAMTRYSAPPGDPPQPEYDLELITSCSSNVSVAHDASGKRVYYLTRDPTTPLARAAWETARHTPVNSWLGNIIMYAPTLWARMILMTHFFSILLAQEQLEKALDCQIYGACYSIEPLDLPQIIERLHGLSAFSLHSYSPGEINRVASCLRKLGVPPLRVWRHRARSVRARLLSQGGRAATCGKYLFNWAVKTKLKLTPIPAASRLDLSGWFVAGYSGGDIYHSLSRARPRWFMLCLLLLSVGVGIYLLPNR

For O=C1CC(=O)OC(CCc2ccc(O)c(F)c2)(C2CCCC2)C1 (stereo not drawn) [A(129), 6-Cyclopentyl-6-[2-(3-fluoro-4-hydroxy-phenyl)-ethyl]-dihydro-pyran-2,4-dione], the pIC50 was 5.05.
COc1ccc(CCC2(C3CCCC3)CC(=O)CC(=O)O2)cc1C1CC1 (stereo not drawn) [A(130), 6-Cyclopentyl-6-[2-(3-cyclopropyl-4-methoxy-phenyl)-ethyl]-dihydro-pyran-2,4-dione] was tested, and the pIC50 was 5.89.
Cc1cc(C)n2nc(CC3=C(O)CC(CCc4ccc(N(C)S(C)(=O)=O)c(F)c4)(C4CCCC4)OC3=O)nc2n1 (stereo not drawn) [A(131), 6-cyclopentyl-3-[(5,7-dimethyl[1,2,4]triazolo[1,5-a]pyrimidin-2-yl)methyl]-6-[2-(3-fluoro-4-{methyl[methyl(dimethylene)-I^6-sulfanyl]amino}phenyl)ethyl]-4-hydroxy-5,6-dihydro-2H-pyran-2-one] gave a pIC50 of 6.86.
Compound CN(c1ccc(CCC2(C3CCCC3)CC(=O)CC(=O)O2)cc1F)S(C)(=O)=O (stereo not drawn) [A(132), 6-cyclopentyl-6-[2-(3-fluoro-4-{methyl[methyl(dimethylene)-6-sulfanyl]amino}phenyl)ethyl]dihydro-2H-pyran-2,4(3H)-dione] has a pIC50 of 4.89.
Work on Cc1cc(C)n2nc(CC3=C(O)CC(CCc4ccc(N(C)S(C)(=O)=O)cc4)(C4CCCC4)OC3=O)nc2n1 (stereo not drawn) [A(133), 6-cyclopentyl-3-[(5,7-dimethyl[1,2,4]triazolo[1,5-a]pyrimidin-2-yl)methyl]-4-hydroxy-6-[2-(4-{methyl[methyl(dimethylene)-I^6-sulfanyl]amino}phenyl)ethyl]-5,6-dihydro-2H-pyran-2-one] yielded a pIC50 of 7.14.
O=C1CC(=O)OC(CCc2ccc(N3CCCS3(=O)=O)c(F)c2)(C2CCCC2)C1 (stereo not drawn) [A(134), 6-cyclopentyl-6-{2-[4-(1,1-dioxidoisothiazolidin-2-yl)-3-fluorophenyl]ethyl}dihydro-2H-pyran-2,4(3H)-dione] showed a pIC50 of 4.42.
In the case of Cc1cc(C)n2nc(CC3=C(O)CC(CCc4ccc(O)c(C5CCCC5)c4)(C4CCCC4)OC3=O)nc2n1 (stereo not drawn) [A(135), 6-cyclopentyl-6-[2-(3-cyclopentyl-4-hydroxyphenyl)ethyl]-3-[(5,7-dimethyl[1,2,4]triazolo[1,5-a]pyrimidin-2-yl)methyl]-4-hydroxy-5,6-dihydro-2H-pyran-2-one], the pIC50 was 7.82.
With CCCc1cc(CCC2(C3CCCC3)CC(O)=C(Cc3nc4nc(C)cc(C)n4n3)C(=O)O2)ccc1O (stereo not drawn) [A(136), 6-cyclopentyl-3-[(5,7-dimethyl[1,2,4]triazolo[1,5-a]pyrimidin-2-yl)methyl]-4-hydroxy-6-[2-(4-hydroxy-3-propylphenyl)ethyl]-5,6-dihydro-2H-pyran-2-one] the pIC50 was 8.70.
CCCc1cc(CCC2(C3CCCC3)CC(O)=C(Cc3nc4nc(CC)cc(CC)n4n3)C(=O)O2)ccc1O (stereo not drawn) [A(137), 6-cyclopentyl-3-[(5,7-dietylphenyl)ethyl]-5,6-hyl[1,2,4]triazolo[1,5-a]pyrimidin-2-yl)methyl]-4-hydroxy-6-[2-(4-hydroxy-3-propdihydro-2H-pyran-2-one] gave a pIC50 of 8.15.
For CCc1cc(CC)n2nc(CC3C(=O)CC(CCc4ccc(O)c(CC)c4)(C4CCCC4)OC3=O)nc2n1 (stereo not drawn) [A(138), 6-cyclopentyl-3-[(5,7-diethyl[1,2,4]triazolo[1,5-a]pyrimidin-2-yl)methyl]-6-[2-(3-ethyl-4-hydroxyphenyl)ethyl]-4-hydroxy-5,6-dihydro-2H-pyran-2-one], the pIC50 was 8.10.
Work on CCc1cc(CCC2(C3CCCC3)CC(O)=C(Cc3nc4nc(C)cc(C)n4n3)C(=O)O2)ccc1OCCNC(C)=O (stereo not drawn) [A(139), N-{2-[4-(2-{2-cyclopentyl-5-[(5,7-dimethyl[1,2,4]triazolo[1,5-a]pyrimidin-2-yl)methyl]-4-hydroxy-6-oxo-3,6-dihydro-2H-pyran-2-yl}ethyl)-2-ethylphenoxy]ethyl}acetamide] yielded a pIC50 of 8.70.
Work on CC(C)(C#N)c1c(F)cc(CCC2(C3CCCC3)CC(O)=C(Cc3nc4ncc(Cl)cn4n3)C(=O)O2)cc1F (stereo not drawn) [A(142)] yielded a pIC50 of 8.40.
Cc1cnc2nc(CC3=C(O)CC(CCc4cc(F)c(C(C)(C)C#N)c(F)c4)(C4CCCC4)OC3=O)nn2c1 (stereo not drawn) [A(143), 2-(4-{2-[2-Cyclopentyl-4-hydroxy-5-(6-methyl-[1,2,4]triazolo[1,5-a]pyrimidin-2-ylmethyl)-6-oxo-3,6-dihydro-2H-pyran-2-yl]-ethyl}-2,6-difluoro-phenyl)-2-methyl-propionitrile] gave a pIC50 of 8.05.
In the case of CC(C)(C#N)c1c(F)cc(CCC2(C3CCCC3)CC(O)=C(Cc3nc4ncccn4n3)C(=O)O2)cc1F (stereo not drawn) [A(144), 2-{4-[2-(2-Cyclopentyl-4-hydroxy-6-oxo-5-[1,2,4]triazolo[1,5-a]pyrimidin-2-ylmethyl-3,6-dihydro-2H-pyran-2-yl)-ethyl]-2,6-difluoro-phenyl}-2-methyl-propionitrile], the pIC50 was 7.96.
Work on COC1=CC(=O)OC(CCc2ccc(C(C)(C)C#N)c(F)c2)(C2CCCC2)C1 (stereo not drawn) [A(145), 2-{4-[2-(2-Cyclopentyl-4-methoxy-6-oxo-3,6-dihydro-2H-pyran-2-yl)-ethyl]-2-fluoro-phenyl}-2-methyl-propionitrile] yielded a pIC50 of 5.41.
Work on Cc1cc(C)n2nc(CC3=C(O)CC(CCc4ccc(C(C)(C)C#N)c(Cl)c4)(C4CCCC4)OC3=O)nc2n1 (stereo not drawn) [A(146), 2-(2-Chloro-4-{2-[2-cyclopentyl-5-(5,7-dimethyl-[1,2,4]triazolo[1,5-a]pyrimidin-2-ylmethyl)-4-hydroxy-6-oxo-3,6-dihydro-2H-pyran-2-yl]-ethyl}-phenyl)-2-methyl-propionitrile] yielded a pIC50 of 8.70.
Compound CC(C)(C#N)c1ccc(CCC2(C3CCCC3)CC(=O)CC(=O)O2)cc1Cl (stereo not drawn) [A(147), 2-{2-Chloro-4-[2-(2-cyclopentyl-4,6-dioxo-tetrahydro-pyran-2-yl)-ethyl]-phenyl}-2-methyl-propionitrile] has a pIC50 of 5.85.
For Cc1cc(C)n2nc(CC3=C(O)CC(CCc4ccc(C5(C#N)CC5)c(Cl)c4)(C4CCCC4)OC3=O)nc2n1 (stereo not drawn) [A(148), 1-(2-Chloro-4-{2-[2-cyclopentyl-5-(5,7-dimethyl-[1,2,4]triazolo[1,5-a]pyrimidin-2-ylmethyl)-4-hydroxy-6-oxo-3,6-dihydro-2H-pyran-2-yl]-ethyl}-phenyl)-cyclopropanecarbonitrile], the pIC50 was 8.30.
Compound N#CC1(c2ccc(CCC3(C4CCCC4)CC(=O)CC(=O)O3)cc2Cl)CC1 (stereo not drawn) [A(149), 1-{2-Chloro-4-[2-(2-cyclopentyl-4,6-dioxo-tetrahydro-pyran-2-yl)-ethyl]-phenyl}-cyclopropanecarbonitrile] has a pIC50 of 5.41.
In the case of CCc1cc(CCC2(C3CCCC3)CC(O)=C(Cc3nc4nc(C)cc(C)n4n3)C(=O)O2)c(OC)cc1O (stereo not drawn) [A(150), 6-Cyclopentyl-3-(5,7-dimethyl-[1,2,4]triazolo[1,5-a]pyrimidin-2-ylmethyl)-6-[2-(5-ethyl-4-hydroxy-2-methoxy-phenyl)-ethyl]-4-hydroxy-5,6-dihydro-pyran-2-one], the pIC50 was 8.15.
For CCc1cc(CCC2(C3CCCC3)CC(=O)CC(=O)O2)c(OC)cc1O (stereo not drawn) [A(151), 6-Cyclopentyl-6-[2-(5-ethyl-4-hydroxy-2-methoxy-phenyl)-ethyl]-dihydro-pyran-2,4-dione], the pIC50 was 6.52.
With CCc1cc(CCC2(C3CCCC3)CC(O)=C(Cc3nc[nH]c3C)C(=O)O2)c(OC)cc1O (stereo not drawn) [A(156), 6-Cyclopentyl-6-[2-(5-ethyl-4-hydroxy-2-methoxy-phenyl)-ethyl]-4-hydroxy-3-(5-methyl-1H-imidazol-4-ylmethyl)-5,6-dihydro-pyran-2-one] the pIC50 was 7.68.
CCc1nc(CC2=C(O)CC(CCc3cc(CC)c(O)cc3OC)(C3CCCC3)OC2=O)c(C)[nH]1 (stereo not drawn) [A(157), 6-Cyclopentyl-6-[2-(5-ethyl-4-hydroxy-2-methoxy-phenyl)-ethyl]-3-(2-ethyl-5-methyl-1H-imidazol-4-ylmethyl)-4-hydroxy-5,6-dihydro-pyran-2-one] showed a pIC50 of 7.19.
Compound CCc1cc(CCC2(C3CCCC3)CC(O)=C(Cc3nc4ncc(Cl)cn4n3)C(=O)O2)c(C)cc1O (stereo not drawn) [A(160), 3-(6-Chloro-[1,2,4]triazolo[1,5-a]pyrimidin-2-ylmethyl)-6-cyclopentyl-6-[2-(5-ethyl-4-hydroxy-2-methyl-phenyl)-ethyl]-4-hydroxy-5,6-dihydro-pyran-2-one] has a pIC50 of 7.54.
Compound CCc1cc(CCC2(C3CCCC3)CC(O)=C(Cc3nc4ncc(Cl)cn4n3)C(=O)O2)c(F)cc1O (stereo not drawn) [A(161), 3-(6-Chloro-[1,2,4]triazolo[1,5-a]pyrimidin-2-ylmethyl)-6-cyclopentyl-6-[2-(5-ethyl-2-fluoro-4-hydroxy-phenyl)-ethyl]-4-hydroxy-5,6-dihydro-pyran-2-one] has a pIC50 of 8.10.
CCc1cc(CCC2(C3CCCC3)CC(O)=C(Cc3nc4nc(C)cc(C)n4n3)C(=O)O2)ccn1 (stereo not drawn) [A(162), 6-Cyclopentyl-3-(5,7-dimethyl-[1,2,4]triazolo[1,5-a]pyrimidin-2-ylmethyl)-6-[2-(2-ethyl-pyridin-4-yl)-ethyl]-4-hydroxy-5,6-dihydro-pyran-2-one] was tested, and the pIC50 was 8.00.
CCc1cc(CCC2(C3CCCC3)CC(=O)CC(=O)O2)ccn1 (stereo not drawn) [A(163), 6-Cyclopentyl-6-[2-(2-ethyl-pyridin-4-yl)-ethyl]-dihydro-pyran-2,4-dione] was tested, and the pIC50 was 5.72.
Compound CCc1cc(CCC2(C3CCCC3)CC(O)=C(Cc3nc4ncc(Cl)cn4n3)C(=O)O2)ccn1 (stereo not drawn) [A(164), 3-(6-Chloro-[1,2,4]triazolo[1,5-a]pyrimidin-2-ylmethyl)-6-cyclopentyl-6-[2-(2-ethyl-pyridin-4-yl)-ethyl]-4-hydroxy-5,6-dihydro-pyran-2-one] has a pIC50 of 7.38.
Work on CCc1ccc(O)c(CCC2(C3CCCC3)CC(O)=C(Cc3nc4nc(C)cc(C)n4n3)C(=O)O2)c1 (stereo not drawn) [A(166), 6-Cyclopentyl-3-(5,7-dimethyl-[1,2,4]triazolo[1,5-a]pyrimidin-2-ylmethyl)-6-[2-(5-ethyl-2-hydroxy-phenyl)-ethyl]-4-hydroxy-5,6-dihydro-pyran-2-one] yielded a pIC50 of 9.00.
With CCc1ccc(O)c(CCC2(C3CCCC3)CC(=O)CC(=O)O2)c1 (stereo not drawn) [A(169), 6-Cyclopentyl-6-[2-(5-ethyl-2-hydroxy-phenyl)-ethyl]-dihydro-pyran-2,4-dione] the pIC50 was 6.40.
